Read-outs that look alike come from different tables or passages of the source.
Assays:
GPR139 = target: T1, GPR139 (Homo sapiens, UniProt Q6DWJ6); assay: GPR139 Agonist titration / agonist counterscreen assay (calcium detection, HEK-GPR139 cells); type: cell-based; parameters: expressed in transfected cells; host or cells: HEK Aequorin cells, Maxcyte transient transfection; conditions: GPR139 Agonist Activity; for Averaged Max % Response (±St. Dev.): activity relative to known control; for EC50: read-out: EC50
T1 sequence (Q6DWJ6 1-353): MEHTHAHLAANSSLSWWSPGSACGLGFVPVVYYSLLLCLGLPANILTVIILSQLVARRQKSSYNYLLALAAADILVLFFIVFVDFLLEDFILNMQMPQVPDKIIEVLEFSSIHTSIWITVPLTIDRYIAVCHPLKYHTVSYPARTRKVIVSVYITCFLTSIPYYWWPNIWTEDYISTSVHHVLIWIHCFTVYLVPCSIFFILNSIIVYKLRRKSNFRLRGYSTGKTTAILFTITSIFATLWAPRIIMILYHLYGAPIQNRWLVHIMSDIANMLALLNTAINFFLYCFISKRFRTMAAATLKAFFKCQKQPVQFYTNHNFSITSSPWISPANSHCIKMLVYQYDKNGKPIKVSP
Protocol: GPR activity was assessed using a calcium detection assay. […] Negative control samples were treated with DMSO. […] Intracellular calcium was measured using Calcium 5.

parental HEK cells = assay: HEK parental Agonist Counterscreen Assay (non-transfected cells); type: cell-based; conditions: for Averaged Max % Response (±St. Dev.): activity relative to known control
Excerpt: The high control for the agonist counterscreen was Forskolin not acetylcholine.

[1] = values printed in E-notation without unit
[2] = HEK Agonist Activity section of Table 4 (parental HEK counterscreen)
[3] = Homo sapiens, HEK293, HEK Agonist Activity section of Table 4 (parental HEK counterscreen)
[4] = Homo sapiens, HEK293, HEK Agonist Activity, parental non-transfected HEK cells

Row | Compound | Averaged Max % Response (±St. Dev.) (GPR139) [%] | Lipophilic Efficiency (logD) (GPR139; based on logD) | Lipophilic Efficiency (logP) (GPR139; based on logP) | Hill Slope (GPR139; fitted dose-response curve) | Efficiency Ligand (GPR139; ligand efficiency) | EC50 (GPR139; [1]) [nM] | Lipophilic Efficiency (logD) (parental HEK cells; HEK Agonist Activity section) | Lipophilic Efficiency (logP) (parental HEK cells; HEK Agonist Activity section) | EC50 (parental HEK cells; [2]) [nM] | Averaged Max % Response (±St. Dev.) (parental HEK cells; HEK Agonist Activity section) [%] | EC50 (parental HEK cells; [3]) [nM] | Efficiency Ligand (GPR139) | Hill Slope (GPR139) | Lipophilic Efficiency (logD) (GPR139) | Lipophilic Efficiency (logP) (GPR139) | EC50 (GPR139; HEK-GPR139 cells) [nM] | further results
1 | COc1ccc(CNC(=O)Nc2ccc(-c3cn[nH]c3)cc2)cc1.O=C(O)C(F)(F)F [SR-00000005347] | 110.92 ± 4.82 | 4.10 | 4.10 | 0.58 | 0.39 | 189 | 2.23 | 2.23 | > 14100 | 11.55 ± 3.19 |  |  |  |  |  |  | 
2 | CC(C(=O)NCCC1=CCCCC1)n1c(=O)c2cccn2c2ccccc21 (centres unmarked) [SR-01000142419] | 123.62 ± 30.65 | 4.22 | 4.22 | 0.32 | 0.36 | 106 | 2.10 | 2.10 |  | −9.79 ± 12.86 | > 14100 |  |  |  |  |  | 
3 | O=C(O)COc1cc(Br)c(Br)c(Br)c1O [SR-01000028953] | 88.05 ± 4.24 |  |  |  |  |  | 5.29 | 1.52 |  | 1.36 ± 9.86 | > 15300 | 0.54 | 0.80 | 6.30 | 2.53 |  | 
4 | CCSc1nc2sccn2c(=O)c1C(=O)NC(C)c1ccccc1 (centres unmarked) [SR-01000378352] | 93.30 ± 10.83 |  |  |  |  |  | 1.53 | 1.53 |  | 8.83 ± 9.35 | > 14100 | 0.36 | 1.14 | 2.89 | 2.89 | 616 | 
5 | Cc1cc(C(=O)NNC(=O)CNC(=O)Cc2cccc3ccccc23)c(C)o1 [SR-01000068718] | 119.00 ± 0.36 | 6.50 | 6.50 | 0.58 | 0.40 | 10.1 |  |  |  |  |  |  |  |  |  |  | Lipophilic Efficiency (logD) (parental HEK cells; HEK Agonist Activity): 3.34; Lipophilic Efficiency (logP) (parental HEK cells; HEK Agonist Activity): 3.34; Averaged Max % Response (±St. Dev.) (parental HEK cells; HEK Agonist Activity): 20.24 ± 11.96%; EC50 (parental HEK cells; [4]): > 14900 nM
6 | CSc1cccc(NC(=O)C2C3C=CC4(O3)C2C(=O)N(C(C)c2ccccc2)C4C(=O)NC2CCCC(C)C2C)c1 (centres unmarked) [SR-01000545824] | 103.05 ± 12.22 | 1.92 | 1.92 | 0.41 | 0.23 | 145 | −0.052 | −0.052 | > 13600 | −0.19 ± 3.69 |  |  |  |  |  |  | 
7 | O=C(CN1CCCc2ccccc21)NNC(=O)Nc1ccc(Cl)c(Cl)c1 [SR-01000029575] | 96.54 ± 7.56 | 3.35 | 3.34 | 0.79 | 0.38 | 78.1 | 1.09 | 1.08 |  | 7.49 ± 5.72 | > 14300 |  |  |  |  |  | 
8 | CC(C)C(CC(=O)Cc1cccc2ccccc12)C(=O)Nc1cccc(C#N)c1 (centres unmarked) [SR-05000022531] | 133.92 ± 16.41 | 3.47 | 3.47 | 0.09 | 0.37 | 19.6 |  |  |  |  |  |  |  |  |  |  | Lipophilic Efficiency (logD) (parental HEK cells; HEK Agonist Activity): 0.61; Lipophilic Efficiency (logP) (parental HEK cells; HEK Agonist Activity): 0.61; Averaged Max % Response (±St. Dev.) (parental HEK cells; HEK Agonist Activity): 1.20 ± 11.04%; EC50 (parental HEK cells; [4]): > 14100 nM
9 | Nc1ccc2c(C(F)(F)F)cc(=O)oc2c1 [SR-01000597171] | 177.62 ± 11.26 |  |  |  |  |  | 3.35 | 3.35 | 10700 | 92.06 ± 10.88 |  | 0.47 |  | 3.74 | 3.74 | > 4400 | Hill Slope (parental HEK cells; HEK Agonist Activity section): 2.90
10 | Cc1ccc(CN2CC34C=CC(O3)C(C(=O)NCCC3=CCCCC3)C4C2=O)cc1 (centres unmarked) [SR-01000550322] | 86.57 ± 2.15 |  |  |  |  |  | 1.99 | 1.99 | > 13400 | −6.25 ± 1.61 |  | 0.27 | 0.73 | 2.87 | 2.87 | 1800 | 
11 | Cc1c(Cl)c([N+](=O)[O-])nn1CC(=O)NC(C)COc1ccccc1 (centres unmarked) [SR-01000318171] | 76.40 ± 3.97 |  |  |  |  |  | 2.16 | 2.16 |  | 6.88 ± 5.68 | > 14100 | 0.36 | 1.01 | 3.49 | 3.49 | 656 | 
12 | Cc1ccc(C2(C)NC(=O)N(CC(=O)NCC(C)C)C2=O)cc1 (centres unmarked) [SR-01000048367] | 122.38 ± 5.77 | 5.64 | 5.64 | 0.74 | 0.45 | 36.5 |  |  |  |  |  |  |  |  |  |  | Lipophilic Efficiency (logD) (parental HEK cells; HEK Agonist Activity): 3.00; Lipophilic Efficiency (logP) (parental HEK cells; HEK Agonist Activity): 3.00; Averaged Max % Response (±St. Dev.) (parental HEK cells; HEK Agonist Activity): 8.71 ± 14.83%; EC50 (parental HEK cells; [4]): > 16000 nM
